How the values were obtained:
WI-38 = assay: Cytotoxicity against human WI-38 cells assessed as reduction in cell viability after 72 hrs by SRB assay; format: cell-based; conditions: WI-38, 72 h
A549 [1] = assay: Antiproliferative activity against human A549 cells assessed as inhibition of cell growth at 100 microM measured after 72 hrs by SRB assay; format: functional
HepG2 [2] = assay: Antiproliferative activity against human HepG2 cells assessed as inhibition of cell growth at 100 microM measured after 72 hrs by SRB assay; format: functional
MCF7 [3] = assay: Antiproliferative activity against human MCF-7 cells assessed as inhibition of cell growth at 100 microM measured after 72 hrs by SRB assay; format: functional
A549 [4] = assay: Antiproliferative activity against human A549 cells assessed as cell growth inhibition measured after 72 hrs by SRB assay; format: functional, cell-based; conditions: A549, 72 h
HepG2 [5] = assay: Antiproliferative activity against human HepG2 cells assessed as cell growth inhibition measured after 72 hrs by SRB assay; format: functional, cell-based; conditions: HepG2, 72 h
MCF7 [6] = assay: Antiproliferative activity against human MCF-7 cells assessed as cell growth inhibition measured after 72 hrs by SRB assay; format: functional, cell-based; conditions: MCF7, 72 h
MCF7 [7] = assay: Induction of apoptosis in human MCF-7 cells assessed as early apoptotic cells at IC50 measured after 24 hrs by Annexin V-FITC/propidium iodide staining based flow cytometry (reference value: 0.4%); format: functional
MCF7 [8] = assay: Induction of apoptosis in human MCF-7 cells assessed as late apoptotic cells at IC50 measured after 24 hrs by Annexin V-FITC/propidium iodide staining based flow cytometry (reference value: […]); format: functional
MCF7 [9] = assay: Induction of apoptosis in human MCF-7 cells assessed as necrotic cells at IC50 measured after 24 hrs by Annexin V-FITC/propidium iodide staining based flow cytometry (reference value: 1.27%); format: functional
A549 [10] = assay: Induction of apoptosis in human A549 cells assessed as early apoptotic cells at IC50 measured after 24 hrs by annexin V-FITC staining based flow cytometry (reference value: 0.63%); format: functional
A549 [11] = assay: Induction of apoptosis in human A549 cells assessed as late apoptotic cells at IC50 measured after 24 hrs by annexin V-FITC staining based flow cytometry (reference value: […]); format: functional
A549 [12] = assay: Induction of apoptosis in human A549 cells assessed as necrotic cells at IC50 measured after 24 hrs by annexin V-FITC staining based flow cytometry (reference value: 1.01%); format: functional
MCF7 [13] = assay: Induction of apoptosis in human MCF7 cells assessed as caspase-9 expression at IC50 by ELISA (reference value: 1.77 +/- 0.1 ng/ml); format: functional
MCF7 [14] = assay: Induction of apoptosis in human MCF7 cells assessed as fold change in caspase-9 expression at IC50 by ELISA relative to control; format: functional
MCF7 [15] = assay: Induction of apoptosis in human MCF7 cells assessed as Bax expression at IC50 by ELISA (reference value: 45.46 +/- 3.6 pg/ml); format: functional
MCF7 [16] = assay: Induction of apoptosis in human MCF7 cells assessed as fold change in Bax expression at IC50 by ELISA relative to control; format: functional
MCF7 [17] = assay: Induction of apoptosis in human MCF7 cells assessed as Bcl-2 expression at IC50 by ELISA (reference value: 7.49 +/- 0.1 ng/ml); format: functional
MCF7 [18] = assay: Induction of apoptosis in human MCF7 cells assessed as fold change in Bcl-2 expression at IC50 by ELISA relative to control; format: functional
A549 [19] = assay: Induction of apoptosis in human A549 cells assessed as caspase-9 expression at IC50 by ELISA (reference value: […] +/- […] ng/ml); format: functional
A549 [20] = assay: Induction of apoptosis in human A549 cells assessed as fold change in caspase-9 expression at IC50 by ELISA relative to control; format: functional
A549 [21] = assay: Induction of apoptosis in human A549 cells assessed as Bax expression at IC50 by ELISA (reference value: 42.16 +/-6.2 pg/ml); format: functional
A549 [22] = assay: Induction of apoptosis in human A549 cells assessed as fold change in Bax expression at IC50 by ELISA relative to control; format: functional
A549 [23] = assay: Induction of apoptosis in human A549 cells assessed as Bcl2 expression at IC50 by ELISA (reference value: 9.04 +/-0.1 ng/ml); format: functional
A549 [24] = assay: Induction of apoptosis in human A549 cells assessed as fold change in Bcl2 expression at IC50 by ELISA relative to control; format: functional
[25] = Toxicity in ip dosed BALB/c mouse measured for 3 days; format: organism-based; conditions: in vivo, time 3 day
MCF7 [26] = assay: Antitumor activity against human MCF7 cells xenografted in BALB/c mouse assessed as reduction in tumor volume at 23 mg/kg, ip administered thrice a week for 28 days by vernier caliper analysis; format: functional; conditions: time 28 day
MCF7 [27] = assay: Induction of cell cycle arrest in human MCF7 cells assessed as accumulation at pre-G1 phase at IC50 measured after 24 hrs by propidium iodide/RNase staining based flow cytometry (reference value: 1.96%); format: functional
MCF7 [28] = assay: Induction of cell cycle arrest in human MCF7 cells assessed as accumulation at G0/G1 phase at IC50 measured after 24 hrs by propidium iodide/RNase staining based flow cytometry (reference value: 51.72%); format: functional
MCF7 [29] = assay: Induction of cell cycle arrest in human MCF7 cells assessed as accumulation at G2/M phase at IC50 measured after 24 hrs by propidium iodide/RNase staining based flow cytometry (reference value: 18.4%); format: functional
MCF7 [30] = assay: Induction of cell cycle arrest in human MCF7 cells assessed as accumulation at S phase at IC50 measured after 24 hrs by propidium iodide/RNase staining based flow cytometry (reference value: 29.88%); format: functional
MCF7 [31] = assay: Induction of cell cycle arrest in human MCF7 cells assessed as reduction in accumulation at G0/G1 phase at IC50 measured after 24 hrs by propidium iodide/RNase staining based flow cytometry relative to control; format: functional
MCF7 [32] = assay: Induction of cell cycle arrest in human MCF7 cells assessed as increase in accumulation at G2/M phase at IC50 measured after 24 hrs by propidium iodide/RNase staining based flow cytometry relative to control; format: functional
MCF7 [33] = assay: Induction of cell cycle arrest in human MCF7 cells assessed as increase in accumulation at pre-G1 phase at IC50 measured after 24 hrs by propidium iodide/RNase staining based flow cytometry relative to control; format: functional
A549 [34] = assay: Induction of cell cycle arrest in human A549 cells assessed as accumulation at pre-G1 phase at IC50 measured after 24 hrs by propidium iodide/RNase staining based flow cytometry (reference value: 1.93%); format: functional
A549 [35] = assay: Induction of cell cycle arrest in human A549 cells assessed as accumulation at G0/G1 phase at IC50 measured after 24 hrs by propidium iodide/RNase staining based flow cytometry (reference value: 58.26%); format: functional
A549 [36] = assay: Induction of cell cycle arrest in human A549 cells assessed as accumulation at G2/M phase at IC50 measured after 24 hrs by propidium iodide/RNase staining based flow cytometry (reference value: 9.86%); format: functional
A549 [37] = assay: Induction of cell cycle arrest in human A549 cells assessed as accumulation at S phase at IC50 measured after 24 hrs by propidium iodide/RNase staining based flow cytometry (reference value: 31.88%); format: functional
MCF7 [38] = assay: Induction of apoptosis in human MCF-7 cells assessed as total apoptotic cells at IC50 measured after 24 hrs by Annexin V-FITC/propidium iodide staining based flow cytometry (reference value: 0.69%); format: functional
A549 [39] = assay: Induction of apoptosis in human A549 cells assessed as total apoptotic cells at IC50 measured after 24 hrs by Annexin V-FITC/propidium iodide staining based flow cytometry (reference value: 0.92%); format: functional
[40] = Toxicity in BALB/c mouse xenografted with human MCF7 cells assessed as body weight at 23 mg/kg, ip administered thrice a week for 28 days measured on day 28 (reference value: 31.3 gms); format: organism-based; conditions: in vivo, 672 h, time 28 day

`O=c1[nH]cc(F)c(=O)[nH]1` [FLUOROURACIL] showed an IC50 (WI-38) of 78500 nM, an inhibition at 100 µM (A549 [1]) of 89.3% and an inhibition at 100 µM (HepG2 [2]) of 80.7%. The inhibition at 100 µM (MCF7 [3]) was 90.7%, the IC50 (A549 [4]) was 690 nM and the IC50 (HepG2 [5]) was 520 nM. The IC50 (MCF7 [6]) was 590 nM, the Activity (MCF7 [7]) was 7.26% and the Activity (MCF7 [8]) was 17.71%. For the same compound, the Activity (MCF7 [9]) was 2.55%, the Activity (A549 [10]) was 4.29% and the Activity (A549 [11]) was 20.68%. The Activity (A549 [12]) was 3.11%, the Activity (MCF7 [13]) was 20.87 ng/mL and the “fold change (FC)” value (MCF7 [14]) was 11.8. For the same compound, the Activity (MCF7 [15]) was 289.9 pg/mL, the “fold change (FC)” value (MCF7 [16]) was 6.37 and the Activity (MCF7 [17]) was 2.23 ng/mL. The “fold change (FC)” value (MCF7 [18]) was 0.3, the Activity (A549 [19]) was 13.98 ng/mL and the “fold change (FC)” value (A549 [20]) was 11.63. The Activity (A549 [21]) was 376.9 pg/mL, the “fold change (FC)” value (A549 [22]) was 8.93 and the Activity (A549 [23]) was 6.21 ng/mL. The “fold change (FC)” value (A549 [24]) was 0.68, the LD50 at 72 h [25] was 57.2 mg/kg and the Activity (MCF7 [26]) was 0.41 cm3. The Activity (MCF7 [27]) was 27.52%, the Activity (MCF7 [28]) was 34.09% and the Activity (MCF7 [29]) was 42.07%. For the same compound, the Activity (MCF7 [30]) was 23.84%, the “fold change (FC)” value (MCF7 [31]) was 1.5 and the “fold change (FC)” value (MCF7 [32]) was 2.3. For the same compound, the “fold change (FC)” value (MCF7 [33]) was 14, the Activity (A549 [34]) was 28.08% and the Activity (A549 [35]) was 36.47%. The Activity (A549 [36]) was 37.82%, the Activity (A549 [37]) was 25.71% and the Activity (MCF7 [38]) was 24.97%. It also gave an Activity (A549 [39]) of 24.97% and an Activity [40] of 24.5 g.
